Source: EP0565593B1, “REDUCING PESTICIDAL INTERACTIONS IN CROPS” (priority 1990, dated 1992)
Where “and” joins values, the source holds several entries; their conditions need not be identical. Equal entries are not always repeated. Where two headings read alike, the source gives them in different places.

Columns and labels:
[1] = system: velvetleaf (Abutilon theophrasti); experiment: Greenhouse test, combination of Procedures II and III (Examples 1, 2; Tables 1, 2); assay type: in vivo; settings: Ex. 2: Insecticide 2 3.36 Kg/Ha + Herbicide 2 4.48 Kg/Ha; 3 weeks
Corn [2] = experiment: Greenhouse test, combination of Procedures II and III: insecticide in-furrow or in cover layer, herbicide and antidote incorporated in cover layer (Examples 1-3, 6; Tables 1-3, 6); assay type: in vivo; settings: 3 weeks
Velvetleaf (VELE) [3] = assay type: in vivo, Abutilon theophrasti; settings: […]
Corn [4] = system: Corn
Giant foxtail (GIFT) = experiment: whole plant or invertebrate; assay type: in vivo
Velvetleaf (VELE) [5] = experiment: whole plant or invertebrate; assay type: in vivo, Abutilon theophrasti
Corn [6] = settings: […]
Shattercane (SHCA) = assay type: in vivo; settings: […]
Corn [7] = experiment: Greenhouse test Procedure VII: biocide and antidote in furrow, herbicide POE (Examples 39-42, 48-50, 56-58; Tables 38-41, 47-49, 55-57); assay type: in vivo; settings: Herbicide No. 8 0.28 Kg/Ha POE + COUNTER 15G 227 g/305 m + antidote in furrow
From the text: This procedure describes interaction among herbicide, biocide and antidote when the biocide and the antidote is applied to a soil furrow containing crop seed before emergence of the crop and the herbicide is applied after emergence of the crop and weeds. The soil and planting depth was described in Procedure IV. The containers for comparison, the biocide and antidote applications to soil furrows were described in Procedure VI. In this procedure, the seed beds of the first, second, third and fourth containers are covered by soil layers not treated with herbicide. The containers were then placed on a bench in a greenhouse and subirrigated as required for the duration of the test. The herbicide, dispersed or dissolved in water containing 0.25% v/v nonionic surfactant (X-77) was applied by a track sprayer (187 L/ha) to the emerged plants of the second, third and fourth containers about five days after planting. All treatments were run in duplicate. Plant response was observed according to Procedure IV. Variations in this procedure will be noted in the examples.
In this example, tests were conducted according to Procedure VII for the POE application of the herbicides following in-furrow application of COUNTER® 15G insecticide (BIOCIDE No. 1) and the antidote on the pre-planted test seeds. In this test, the herbicides were Nos. 1 (MON-12000), 10 (ALLY®) and #4 (HARMONY®) and the Antidote Nos. 1, 7, 12 and 33.
These in-furrow treatments comprised a 50-50 mix of blended granules of COUNTER with and without 5G granular antidotes at 7.4 + 7.4 mg/cm or 1.1 + 0.37 mg active ingredient (a.i.)/cm. The in-furrow initiation of the test was followed five (5) days later with POE application of the herbicides; observations were made eight (8) days later.
In another test, conducted simultaneously with that in Example 39, Herbicide Nos. 5 (chlorimuron ethyl, active ingredient in CLASSIC® herbicide), 7 (nicosulfuron, active ingredient in ACCENT® herbicide) and 15 (tribenuron methyl, active ingredient in EXPRESS® herbicide) were substituted as test herbicides.
In this example, using the same procedure as above, the following imidazolinone herbicides were used with the same insecticide/biocide and antidotes as above: Herb. No. 16 (imazaquin, a.i. in SCEPTER® herbicide; No. 19 (Code No. AC 222293, a.i. in ASSERT® herbicide); No. 6 (imazethapyr, a.i. in PURSUIT® herbicide and No. 18 (imazapyr, a.i. in ARSENAL® herbicide). Test results are shown in Table 40. Table 40
This example describes the testing of the above antidotes used in Examples 39-41 to safen negative synergy interactions between representative species of the class of herbicidal compounds identified as azolopyrimidine sulfonamides and COUNTER 15G. The same procedure used in the above examples was conducted in this test. In this test, the herbicides were formulated in 17% acetone and 83% water with 0.25% v/v X-77 surfactant.
In these tests (according to Procedure VII) the safeners in solution with acetone were applied in furrow to the soil, followed by COUNTER 15G granules at 227 g/305 m (8 oz./1000'). Applications were made in alternate rows in two separate 13.7 cm x 27.7 cm pans containing Dupo silt loam. Pans were seeded 1.3 cm deep, placed on benches in a greenhouse and subirrigated. BEACON was formulated in water with 0.25% v/v X-77 surfactant and applied by track sprayer at a rate of 187 L/Ha (20 gal/A). Weed species in this test were giant foxtail, shattercane and velvetleaf. The herbicide was applied five (5) days after PPI initiation and observation of test result (shown in Table 47) made eight (8) days later.
In Table 47 COUNTER 15G is abbreviated as "C" and the antidotes as "A" in the column headings which indicate the "C + A" ratios used in the tests. Control and COUNTER treatments are average of four (4) replications and COUNTER + Antidote treatments, average of 2 reps. […]

[8] = observed 7 days after POE (Table 35)
[9] = observed 7 days after POE (Table 36)
[10] = observed 9 days later (Table 29)
[11] = observed 9 days later (Table 30)
[12] = […], PPI, 13 days after PPI (Table 31)
[13] = observed 8 days later (Table 32)
[14] = observed 8 days later (Table 33)
[15] = […], PPI, 14 days after PPI (Table 34)

SMILES	% Inhibition VELE (Velvetleaf (VELE) [3]; [8]) [%]	% Inhibition VELE (Velvetleaf (VELE) [3]; [9]) [%]	% Inhibition Corn (Corn [4]; in vivo) [%]	% Inhibition GIFT (Giant foxtail (GIFT); in vivo) [%]	% Inhibition VELE (Velvetleaf (VELE) [5]; in vivo) [%]	% Inhibition Corn (Corn [6]; [8]) [%]	% Inhibition Corn (Corn [6]; [9]) [%]	% Inhibition SHCA (Shattercane (SHCA); [8]) [%]	% Inhibition SHCA (Shattercane (SHCA); [9]) [%]	% Inhibition VELE (Velvetleaf (VELE) [3]; [13]) [%]	% Inhibition VELE (Velvetleaf (VELE) [3]; [14]) [%]	% Inhibition Corn (Corn [4]; [15]) [%]	% Inhibition GIFT (Giant foxtail (GIFT); [15]) [%]	% Inhibition VELE (Velvetleaf (VELE) [5]; [15]) [%]	% Inhibition Corn (Corn [6]; [13]) [%]	% Inhibition Corn (Corn [6]; [14]) [%]	% Inhibition SHCA (Shattercane (SHCA); [13]) [%]	% Inhibition SHCA (Shattercane (SHCA); [14]) [%]	further results
CCOCN(C(=O)CCl)c1c(C)cccc1CC [Herbicide No. 2, 2-Chloro-2'-ethyl-6'-methyl-N-(ethoxymethyl)acetanilide, reference compound]																			% Injury VELE [1]: 35%; % Injury Corn (Corn [2]; Ex. 2: Insecticide 1 0.23 Kg/305m (ditto mark) + Herbicide 2 4.48 Kg/Ha (so in the source)): 66% and 93%; % Injury Corn (Corn [2]; Ex. 2: Insecticide 2 3.36 Kg/Ha + Herbicide 2 4.48 Kg/Ha): 76%; % Injury Corn (Corn [2]; Ex. 3: Herbicide 2 4.48 Kg/Ha): 78%; % Injury Corn (Corn [2]; Ex. 3: Insecticide 3 (227 g) + Herbicide 2 4.48 Kg/Ha): 83%; % Injury Corn (Corn [2]; Ex. 3: Insecticide 4 (227g) + Herbicide 2 4.48 Kg/Ha): 95%
O=C(O)c1sc(Cl)nc1C(F)(F)F [compound 65]	80	65	45	70	90	25	50	70	30										
Cc1csc(=NC(C)c2ccccc2)s1 (centres unmarked) [compound 69]	80	70	35	70	90	30	50	75	40										
CC1(C)OC(Cc2ccccc2)CN1C(=O)C(Cl)Cl (centres unmarked) [compound 34]																			% Inhibition VELE (Velvetleaf (VELE) [3]; [10]): 85%; % Inhibition VELE (Velvetleaf (VELE) [3]; [11]): 70%; % Inhibition Corn (Corn [4]; [12]): 35%; % Inhibition GIFT (Giant foxtail (GIFT); [12]): 75%; % Inhibition VELE (Velvetleaf (VELE) [5]; [12]): 80%; % Inhibition Corn (Corn [6]; [10]): 15%; % Inhibition Corn (Corn [6]; [11]): 35%; % Inhibition SHCA (Shattercane (SHCA); [10]): 70%; % Inhibition SHCA (Shattercane (SHCA); [11]): 25%
O=C(COC(c1ccccc1)c1cccc(C(F)(F)F)c1)OCC(F)(F)F (centres unmarked) [compound 53]										85	70	60	70	100	50	50	80	25	
CC(C)(C)c1ccccc1SCCC#N [compound 74]	80	70	70	85	90	65	60	80	20										
C#CCOC(=O)COC(c1ccccc1)c1ccccc1 [compound 54]										90	65	55	60	90	30	55	70	20	
COC(=O)ON=C(N)COc1cccc2cccnc12 [compound 76]	80	70	65	70	90	55	55	65	30										
O=C(O)COC(c1ccccc1)c1ccccc1 [compound 80]										85	75	40	65	100	20	55	80	35	
O=C(COC(c1ccccc1)c1ccccc1)Oc1ccccc1 [compound 50]										80	70	60	70	95	20	45	75	25	
C=CCC(C)(C#N)Sc1ccc(C(C)C)cc1 (centres unmarked) [compound 75]	85	75	75	75	85	70	65	70	40										
O=C(O)COc1cc(C(F)(F)F)cc(C(F)(F)F)c1 [compound 71]	85	75	30	70	90	20	45	65	30										
O=C(COC(c1ccccc1)c1ccccc1)Oc1cccc([N+](=O)[O-])c1 [compound 57]										85		65	70	80	15	65	80	35	
CCSC(=O)COC(c1ccccc1)c1ccccc1 [compound 51]										85	70	25	65	90	0	30	80	35	% Corn Inhibition C:A Ratios 5 (Corn [7]; C:A ratio 5): 0%; % Corn Inhibition C:A Ratios 10 (Corn [7]; C:A ratio 10): 5%; % Corn Inhibition C:A Ratios 20 (Corn [7]; C:A ratio 20): 3%; % Corn Inhibition C:A Ratios 40 (Corn [7]; C:A ratio 40): 8%; % Corn Inhibition C:A Ratios 80 (Corn [7]; C:A ratio 80): 10%; % Corn Inhibition C:A Ratios 160 (Corn [7]; C:A ratio 160): 10%
C[n+]1cccc(C2CN(C(=O)C(Cl)Cl)C(C)(C)O2)c1 (centres unmarked) [compound 37]																			% Inhibition VELE (Velvetleaf (VELE) [3]; [10]): 90%; % Inhibition VELE (Velvetleaf (VELE) [3]; [11]): 75%; % Inhibition Corn (Corn [4]; [12]): 60%; % Inhibition GIFT (Giant foxtail (GIFT); [12]): 80%; % Inhibition VELE (Velvetleaf (VELE) [5]; [12]): 85%; % Inhibition Corn (Corn [6]; [10]): 65%; % Inhibition Corn (Corn [6]; [11]): 50%; % Inhibition SHCA (Shattercane (SHCA); [10]): 80%; % Inhibition SHCA (Shattercane (SHCA); [11]): 35%
CC1(C)OC(c2cccnc2)CN1C(=O)C(Cl)Cl (centres unmarked) [compound 27]																			% Inhibition VELE (Velvetleaf (VELE) [3]; [10]): 85%; % Inhibition VELE (Velvetleaf (VELE) [3]; [11]): 75%; % Inhibition Corn (Corn [4]; [12]): 30%; % Inhibition GIFT (Giant foxtail (GIFT); [12]): 75%; % Inhibition VELE (Velvetleaf (VELE) [5]; [12]): 85%; % Inhibition Corn (Corn [6]; [10]): 25%; % Inhibition Corn (Corn [6]; [11]): 30%; % Inhibition SHCA (Shattercane (SHCA); [10]): 75%; % Inhibition SHCA (Shattercane (SHCA); [11]): 30%
